Reference: patent publication EP1021178B1, “SELENOPHENE ANTI-TUMOR AGENTS” (Purdue Research Foundation, priority 1996, dated 1997)

Assays:
Experiment in all cases: NCI human tumor cell panel
A498 = format: cell-based; details: A498, read-out: Log10 LC50 (converted)
Text: (§1) Considering the diversity of tumors in terms of cell type, morphology, growth rate and other cellular characteristics, the U.S. National Cancer Institute (NCI) has developed a "disease-oriented" approach to antitumor activity screening (M.R. Boyd, in "Principle of Practice of Oncology" J.T. Devita, S. Hellman, S.A. Rosenberg (Eds.) Vol. 3, PPO Update, No. 10, 1989). This in vitro prescreening system is based on the measurement of antitumor cytotoxicity against human tumor cell line panels consisting of approximately 60 cell lines of major human tumors (including leukemia and slower growing tumor cells such as lung, colon, breast, skin, kidney, etc.). The most important advantage of the new in vitro screening panels is the opportunity to identify compounds that are selectively more cytotoxic to cells of slowly growing solid tumors than to rapidly growing leukemia cells.
(§2) The cytotoxic activity of the present selenophene compounds have been measured utilizing two different assays or screens. The first screen measures the cytotoxicity against a panel of sixty different human tumor cell lines. This assay provides data regarding the general cytotoxicity of an individual compound. In particular this type of assay is useful in identifying compounds which have enhanced cytotoxic activity against slow growing tumors as compared to faster growing tumor cells such as leukemia tumor cell lines. The identification of such compounds is critical since previously identified antitumor agents have low cytotoxic activity against slower growing tumors. […] The specificity of a cytotoxic compound for tumor cell lines relative to normal cells is an important characteristic of an effective antitumor agent.
(§3) Antitumor cytotoxicity data generated from the National Cancer Institute human tumor cell panels can also be expressed in a graphic pattern (mean graph) to display differential cell growth inhibition (K.D. Paull, R.H. Shoemaker, L. Hodes, A. Monks, D.A. Scudiero, L. Rubinstein, J. Plowman and M.R. Boyd, J. Nail. Cancer Inst., 81, 1088, 1989.) In the mean graph, the arithmetic mean of the logarithm of the GI50 (50% growth inhibition), TGI (total growth inhibition) or LC50 (50% lethal concentration) values is used as an anchor point. […] The length of a bar is indicative of differential cytotoxicity against a specific type of tumor cells or tumor panels.
(§4) The antitumor cytotoxicity of the selenophene compounds tested in those in vitro assays was measured by a microculture assay using either a 3-(4,5-dimethylthiazol-2-yl)-2,5-diphenyltetrazolium bromide (MTT) or sulforhodamine B (SRB) based assay. [M.R. Boyd in "Principles and Practices of Oncology," V.T. DeVita, Jr.]. The experiments were conducted at Purdue University in 96-well microtiter plates and the cytotoxic effects of the selenophene compounds on those cells were measured by cell count using a Coulter Z.F. counter (Hialeah, FL). The results are expressed as GI50, the concentration of drug at which cell numbers are reduced to 50% of control cell culture [T.C.K. Chan, C.J. Chang, N.M. Koonchanok and R.L. Geahlen, Biochem. Biophys. Res. Commun., 193, 1152, (1993); S. Hellman and S.A. Rosenberg (Eds.), Vol. 3, PPO Updates, Number 10, (1989).]
(§5) This in vitro microculture assay has an advantage over in vivo assays in that results are obtained within a week as opposed to several months. The MTT assay is based on the production of a dark blue formazan product by dehydrogenase in the mitochondria of live tumor cells after exposure to drug for 6 days [M.C. Alley, D.A. Scudiero, A. Monks, M.L. Hursey, M.J. Czerwinski, D.L. Fine, B.J. Abbott, J.G. Mayo, R.H. Shoemaker and M.R. Boyd, Cancer Res., 48, 589, 1988]. Thus, only live cells are stained and can be measured at 570 nm. […]

ACHN = format: cell-based; details: read-out: Log10 LC50 (converted)
Text: as §1, §2, §3, §4, §5

HCC-2998 = format: cell-based; details: HCC 2998, read-out: Log10 LC50 (converted)
Text: as §1, §2, §3, §4, §5

HCT-15 = format: cell-based; details: HCT-15, read-out: Log10 LC50 (converted)
Text: as §1, §2, §3, §4, §5

KM12 = format: cell-based; details: KM12, read-out: Log10 LC50 (converted)
Text: as §1, §2, §3, §4, §5

M14 = format: cell-based; details: M14, read-out: Log10 LC50 (converted)
Text: as §1, §2, §3, §4, §5

MDA-N = format: cell-based; details: read-out: Log10 LC50 (converted)
Text: as §1, §2, §3, §4, §5

NCI-H322M = format: cell-based; details: read-out: Log10 LC50 (converted)
Text: as §1, §2, §3, §4, §5

NCI-H460 = format: cell-based; details: NCI-H460, read-out: Log10 LC50 (converted)
Text: as §1, §2, §3, §4, §5

SR = format: cell-based; details: read-out: Log10 LC50 (converted)
Text: as §1, §2, §3, §4, §5

EKVX = details: read-out: Log10 LC50 (converted)
NCI-H23 = details: NCI-H23, read-out: Log10 LC50 (converted)
SF-295 = details: SF-295, read-out: Log10 LC50 (converted)
SNB-75 = details: for CC50: SNB-75, read-out: Log10 LC50 (converted)
MALME-3M = details: read-out: Log10 LC50 (converted)
SK-MEL-5 = details: SK-MEL-5, read-out: Log10 LC50 (converted)
OVCAR-3 = details: OVCAR-3, read-out: Log10 LC50 (converted)
OVCAR-8 = details: OVCAR-8, read-out: Log10 LC50 (converted)
TK-10 = details: TK-10, read-out: Log10 LC50 (converted)
UO-31 = details: UO-31, read-out: Log10 LC50 (converted)
MDA-MB-435 = details: for CC50: MDA-MB-435, read-out: Log10 LC50 (converted)

| Structure (SMILES) | CC50 (A498) | CC50 (ACHN) | CC50 (HCC-2998) | CC50 (HCT-15) | CC50 (KM12) | CC50 (M14) | LC50 (50% lethal concentration) (MDA-N) | LC50 (concentration killing 50% of cells) (NCI-H322M) | LC50 (concentration killing 50% of cells) (NCI-H460) | CC50 (SR) | CC50 (EKVX) | CC50 (NCI-H23) | CC50 (SF-295) | CC50 (SNB-75) | CC50 (MALME-3M) | CC50 (SK-MEL-5) | CC50 (OVCAR-3) | CC50 (OVCAR-8) | CC50 (TK-10) | CC50 (UO-31) | other results |
| --- | --- | --- | --- | --- | --- | --- | --- | --- | --- | --- | --- | --- | --- | --- | --- | --- | --- | --- | --- | --- | --- |
| OCc1ccc(-c2ccc(-c3ccc(CO)[se]3)s2)[se]1 | 0.0955 µM | > 100 µM | 2.45 µM | > 100 µM | > 100 µM | > 100 µM | > 100 µM | > 100 µM | > 100 µM | > 100 µM | > 100 µM | > 100 µM | > 100 µM | > 100 µM | > 100 µM | > 100 µM | > 100 µM | > 100 µM | > 100 µM | > 100 µM | CC50 (MDA-MB-435): > 100 µM; IC (TGI) (MDA-MB-435; MDA-MB-435, read-out: Log10 TGI): > 100 µM |
| OCc1ccc(-c2ccc(-c3cccs3)[se]2)s1 | 0.0661 µM | > 100 µM | 9.77 µM | > 100 µM | > 100 µM | > 100 µM | > 100 µM | > 100 µM | > 100 µM | > 100 µM | > 100 µM | > 100 µM | > 100 µM | > 100 µM | > 100 µM | > 100 µM | > 100 µM | > 100 µM | > 100 µM | > 100 µM | CC50 (MDA-MB-435): > 100 µM |
| O=Cc1ccc(-c2ccc(-c3ccc(C=O)[se]3)[se]2)[se]1 | 6.76 µM | > 100 µM | > 100 µM | > 100 µM | > 100 µM | > 100 µM | > 100 µM | > 100 µM | > 100 µM | > 100 µM | > 100 µM | > 100 µM | > 100 µM | > 100 µM | > 100 µM | > 100 µM | > 100 µM | > 100 µM | > 100 µM | > 100 µM | CC50 (MDA-MB-435): > 100 µM |
| O=Cc1ccc(-c2ccc(-c3cccs3)[se]2)s1 | 0.933 µM | > 100 µM | 20.9 µM | > 100 µM | > 100 µM | > 100 µM | > 100 µM | > 100 µM | > 100 µM | > 100 µM | > 100 µM | > 100 µM | > 100 µM | > 100 µM | > 100 µM | > 100 µM | > 100 µM | > 100 µM | 53.7 µM | > 100 µM | IC (TGI) (SNB-75; SNB-75, read-out: Log10 TGI): 57.5 µM; CC50 (MDA-MB-435): > 100 µM |
